Assay results reported in PubChem BioAssay (NCI).
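Values below derive from 48-hour exposures of cells grown in 96-well plates, with endpoints linearly interpolated between the two concentrations bracketing the appropriate inhibition level. TGI: concentration producing complete growth inhibition.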

Legend:
Assay in all cases: NCI anticancer screen, dose series, 48 h
ACHN renal = tested on: ACHN renal
BT-549 breast = tested on: BT-549 breast
HOP-62 NSCLC = tested on: HOP-62 NSCLC
HT29 colon = tested on: HT29 colon
KM12 colon = tested on: KM12 colon
LOX IMVI melanoma = tested on: LOX IMVI melanoma
MDA-N = tested on: MDA-N
NCI-H460 lung = tested on: NCI-H460 lung
NCI-H522 lung = tested on: NCI-H522 lung
NCI/ADR-RES ovarian = tested on: NCI/ADR-RES ovarian
OVCAR-5 ovarian = tested on: OVCAR-5 ovarian
PC-3 prostate = tested on: PC-3 prostate
RXF 393 renal = tested on: RXF 393 renal
SF-295 CNS = tested on: SF-295 CNS
SF-539 CNS = tested on: SF-539 CNS

SMILES | TGI (ACHN renal) | TGI (BT-549 breast) | TGI (HOP-62 NSCLC) | TGI (HT29 colon) | TGI (KM12 colon) | TGI (LOX IMVI melanoma) | TGI (MDA-N) | TGI (NCI-H460 lung) | TGI (NCI-H522 lung) | TGI (NCI/ADR-RES ovarian) | TGI (OVCAR-5 ovarian) | TGI (PC-3 prostate) | TGI (RXF 393 renal) | TGI (SF-295 CNS) | TGI (SF-539 CNS)
COc1ccc(/C=C2\CC3C4CC=C5C[C@@H](N6CCCC6)CC[C@]5(C)C4CC[C@]3(C)[C@H]2O)cc1OC (stereo not given in full) | 16 µM | 16.5 µM | 12.3 µM | 15.3 µM | 14.2 µM | 18.8 µM | 14.9 µM | 17.4 µM | 16 µM | 19.2 µM | 19 µM | 12.6 µM | 25.2 µM | 11.5 µM | 15.1 µM
ON[C@@H]1C=C[C@H](n2cnc3c(NC4CC4)ncnc32)C1 | > 100 µM | > 100 µM | > 100 µM | > 100 µM | > 100 µM | > 100 µM | > 100 µM | > 100 µM | > 100 µM | > 100 µM | > 100 µM | > 100 µM | > 100 µM | > 100 µM | > 100 µM
COc1ccccc1OC/C(N=Cc1cccnc1)=N/NC(=O)c1ccncc1 | > 100 µM | > 100 µM | > 100 µM | > 100 µM | > 100 µM | > 100 µM | > 100 µM | > 100 µM | > 100 µM | > 100 µM | > 100 µM | > 100 µM | > 100 µM | > 100 µM | > 100 µM
CC(C)(CO)CNc1nc(N)nc(Cl)c1C=O | > 100 µM | > 100 µM | 46.1 µM | > 100 µM | > 100 µM | 33.8 µM | 72.2 µM | > 100 µM | 23.5 µM | > 100 µM | > 100 µM | 41.3 µM | 44.9 µM | > 100 µM | > 100 µM
CC(Oc1ccc(Cl)cc1Cl)C(=O)NN1C(=O)CC(=O)NC1=S (stereo not given) | > 100 µM | > 100 µM | > 100 µM | > 100 µM | > 100 µM | > 100 µM | > 100 µM | > 100 µM | > 100 µM | > 100 µM | > 100 µM | > 100 µM | > 100 µM | > 100 µM | > 100 µM
CSCCCNC(=O)c1csc(-c2csc(CCNC(=O)CNC(=O)OC(C)(C)C)n2)n1 | > 100 µM | > 100 µM | > 100 µM | > 100 µM | > 100 µM | > 100 µM | > 100 µM | > 100 µM | > 100 µM | > 100 µM | > 100 µM | > 100 µM | > 100 µM | > 100 µM | > 100 µM
O=C(N/N=C\c1ccc([N+](=O)[O-])cc1)Nc1ccc2ccccc2c1 | > 100 µM | > 100 µM | 51.2 µM | 72.2 µM | 67.3 µM | > 100 µM | > 100 µM | 36.2 µM | 68.4 µM | > 100 µM | > 100 µM | > 100 µM | > 100 µM | > 100 µM | 47.6 µM
CCSc1c2cc(OC)ccc2nc2ccc(OC)cc12 | > 87.4 µM | > 100 µM | 53.9 µM | 98 µM | > 55.6 µM | > 76.9 µM | 21.7 µM | 60.4 µM | > 48.2 µM | > 69.7 µM | 78.4 µM | > 56 µM | 63 µM | 60.4 µM | > 100 µM
COc1ccc(-c2c(C#N)c(N)nc(Sc3ccccc3N)c2C#N)cc1 | 51.4 µM | > 100 µM | 32.6 µM | > 100 µM | > 100 µM | > 100 µM | > 100 µM | > 100 µM | 62.5 µM | 98.4 µM | > 100 µM | > 55.6 µM | 30.1 µM | 56.6 µM | 56.9 µM
Cc1cc(NS(=O)(=O)c2ccc(NC(=O)c3ccc4nc5ccccc5c(Nc5ccc(S(N)(=O)=O)cc5)c4c3)cc2)no1 | 45.6 µM | 67.5 µM | > 100 µM | 72.2 µM | 59.1 µM | 26.5 µM | 66 µM | 53.1 µM | 37.7 µM | > 100 µM | 65.8 µM | > 100 µM | 58.4 µM | > 100 µM | 80.9 µM
C=C(Cl)C(Cl)(CBr)CCCC(C)C (stereo not given) | 26.2 µM | > 100 µM | 27 µM | 15.7 µM | 24.2 µM | > 100 µM | 97.1 µM | 30.2 µM | > 100 µM | > 80.4 µM | 35.6 µM | 27.5 µM | 44.2 µM | 30 µM | 22.7 µM
c1ccc([P+](Cc2ccc(C[P+](c3ccccc3)(c3ccccc3)c3ccccc3)s2)(c2ccccc2)c2ccccc2)cc1 | > 100 µM | > 100 µM | > 100 µM | > 100 µM | > 100 µM | > 100 µM | > 100 µM | > 100 µM | > 100 µM | > 100 µM | > 100 µM | > 100 µM | > 100 µM | > 100 µM | > 100 µM
CC(C)CC1C(=O)OC(C)(C)OC1=O | > 100 µM | > 100 µM | > 100 µM | > 100 µM | > 100 µM | > 100 µM | > 100 µM | > 100 µM | > 100 µM | > 100 µM | > 100 µM | > 100 µM | > 100 µM | > 100 µM | > 100 µM
CC1=NN(c2nc(N)nc(CCl)n2)C(C)(C)C1 | 31 µM | > 82.5 µM | 19.1 µM | > 92.7 µM | 51.5 µM | 3.35 µM | > 100 µM | 36.2 µM | 2.94 µM | 35 µM | > 78 µM | > 100 µM | > 100 µM | > 74.5 µM | 34 µM
